The results in this text go back to patent publication US20040142888A1, “Modulators of RabGGT and methods of use thereof” (priority 2002, published 2004).

This series concerns HCT116 cells. The experiment in a line: 3H-thymidine incorporation (proliferation) assay in HCT116 cells after siRNA treatment against RabGGT subunits. It counts as cell-based, human. The note with it: 72 hours after siRNA/Lipofectamine 2000 treatment, average of three replicates. Further details: concentration or dose not given beside the values. Here is the method:
HCT-116 human colon tumor cells obtained from the ATCC were grown in RPMI culture medium supplemented with 10% heat inactivated FBS, 1× penicillin/streptomycin, and 25 mM HEPES, in an incubator maintained at 37° C. with CO2 at 6% and humidity at 95%. HCT116 cells were plated in 96 well plates at 2000 cells/100 μl media per well and incubated for 24 hours before RNAi treatment. For treatment, a 2× solution of Lipofectamine 2000/siRNA complexes was generated for each individual siRNA as follows. The siRNA oligonucleotides (Xeragon; Huntsville Ala.) were diluted to a final concentration of 1 μM in Optimem serum-free media (Invitrogen; Carlsbad, Calif.) and incubated for 5 minutes at room temperature. The Lipofectamine 2000 reagent (Invitrogen; Carlsbad, Calif.) was diluted to 10 μg/ml in Optimem serum-free media and incubated for 5 minutes at room temperature. Equal volumes of the 1 μM siRNA oligonucleotides and the 10 μg/ml Lipofectamine 2000 were mixed together, giving a 5× stock of siRNA/Lipofectamine 2000 complexes. After incubation for 20 minutes at room temperature, 1.5 volumes of RPMI medium containing 10% heat inactivated FBS was added to the 5× stock, resulting in a 2× stock of siRNA/Lipofectamine 2000 complexes. For RNAi treatment, 100 μof the 2× stock of siRNA/Lipofectamine 2000 complexes was added to each well containing HCT116 cells, to give a final concentration of 1× siRNA/Lipofectamine 2000 complexes. Cells were incubated for 72 hours prior to the proliferation assay. Three replicates were performed for each siRNA treatment.
The effect of RNAi treatment directed against RabGGT subunits on cellular proliferation was assayed using a 3H-thymidine incorporation assay. The principle of this assay is as follows: During S-phase of the cell cycle, cells incorporate thymidine into the new strand of genomic DNA. Tritiated thymidine can be added to the culture medium and will be incorporated into genomic DNA in proportion to the number of rounds of DNA synthesis that occur. Incorporation can be quantified following lysis of the cells and removal of unincorporated nucleotides. RNAi-treated cells prepared as described above were assayed for 3H-thymidine uptake as follows. The cells were pulsed with 3H-thymidine by addition of 20 μl of a 44 μCi/ml solution of 3H-thymidine in RPMI to each well, to obtain a final concentration of 3H-thymidine of 4 μCi/ml. After incubation for 3 h at 37° C., the medium was removed and 50 μl of 0.25% trypsin in phosphate buffered saline (140 mM NaCl, 2.7 mM KCl, 10 mM Na2HPO4 and 1.8 mM KH2PO4, pH 7.4) was added. After 10 minutes, the contents of the wells were harvested onto a 96-well GF/C filter plate (Whatman; Clifton N.J.) using a Hewlett Packard Filtermate. The filter plate was washed 10 times with distilled water, then left to dry overnight. After the addition of 50 μl of Microscint-20 scintillation fluid (Perkin Elmer; Boston, Mass.) per well, the filter plates were sealed and the amount of radioactivity retained on the filter was determined by scintillation counting. The average of the three replicate samples is reported.
In general terms: Dividing cells build labelled thymidine or BrdU into new DNA.

Turning to “Alpha-1: siRNA against human RabGGT-alpha, coding bases 268-291, SEQ ID NO:01 / NO:02 (chain 1 GGCAGAACUGGGCUUCCUGTT; chain 2 CAGGAAGCCCAGUUCUGCCTT; chemistry not given here)”, the “3H-thy incorp. % of control” value is on record as 33%. For “Alpha-2: siRNA against human RabGGT-alpha, coding bases 628-651, SEQ ID NO:03 / NO:04 (chain 1 AGAGCUGGAGCUGGUGCAGTT; chain 2 CUGCACCAGCUCCAGCUCUTT; chemistry not given here)”, the “3H-thy incorp. % of control” value is given as 17%.

Regarding “Alpha-3: siRNA against human RabGGT-alpha, coding bases 1309-1332, SEQ ID NO:05 / NO:06 (chain 1 GAUGGAGUAUGCCGAGGUGTT; chain 2 CACCUCGGCAUACUCCAUCTT; chemistry not given here)”, the “3H-thy incorp. % of control” value was 63%.

As to “Beta-1: siRNA against human RabGGT-beta, coding bases 493-516, SEQ ID NO:07 / NO:08 (chain 1 CUUUGGCUUUGUUGGGGAATT; chain 2 UUCCCCAACAAAGCCAAAGTT; chemistry not given here)”, the “3H-thy incorp. % of control” value came to 77%. In the case of “Beta-2: siRNA against human RabGGT-beta, coding bases 662-685, SEQ ID NO:09 / NO:10 (chain 1 CGACAAUUACCCUCAGGCGTT; chain 2 CGCCUGAGGGUAAUUGUCGTT; chemistry not given here)”, the “3H-thy incorp. % of control” value amounted to 39%. In the case of “Beta-3: siRNA against human RabGGT-beta, coding bases 812-835, SEQ ID NO:11 / NO:12 (chain 1 GAUGAAGAAACGGGGGGAUTT; chain 2 AUCCCCCCGUUUCUUCAUCTT; chemistry not given here)”, the “3H-thy incorp. % of control” value was determined as 36%.
